From ChEMBL document CHEMBL3817808, “Enlarging the chemical space of anti-leishmanials: a structureactivity relationship study of peptoids against Leishmania mexicana, a causative agent of cutaneous leishmaniasis” (Medchemcomm, 2016)
Non-standard residues stand in square brackets, D forms with d. Residues, ends and D or L forms follow the SMILES beside them. Gly(N-2-aminoethyl) = NCCNCC(=O)O; Nspe = C[C@H](NCC(=O)O)c1ccccc1; Nphe = O=C(O)CNCc1ccccc1; Nleu = CC(C)CNCC(=O)O; NPrGly = CCCNCC(=O)O; Nlys = NCCCCNCC(=O)O

Legend:
Leishmania mexicana [1] = test: Antileishmanial activity against Leishmania mexicana MNYC/BZ/62/M379 promastigotes assessed as parasite viability measured after 1 hr by alamarBlue staining based fluorescence analysis; format: functional; conditions: MNYC/BZ/62/M379, 1 h, read-out: ED50 (the source's name)
Leishmania mexicana [2] = test: Antileishmanial activity against axenic amastigote form of Leishmania mexicana MNYC/BZ/62/M379 assessed as parasite viability measured after 1 hr by alamarBlue staining based fluorescence analysis; format: functional; conditions: MNYC/BZ/62/M379, 1 h, read-out: ED50 (the source's name)
Leishmania mexicana [3] = test: Antileishmanial activity against Leishmania mexicana MNYC/BZ/62/M379 amastigotes infected in mouse RAW264.7 cells assessed as parasite viability measured after 24 hrs by alamarBlue staining based fluorescence analysis; format: functional
[4] = Cytotoxicity against mouse RAW264.7 cells measured after 24 hrs by alamarBlue staining based fluorescence analysis; format: cell-based; conditions: read-out: ED50

Structure (SMILES) | EC50 (Leishmania mexicana [1]) | EC50 (Leishmania mexicana [2]) | ED50 (Leishmania mexicana [3]) | CC50 at 24 h [4]
NCCNCC(=O)N(CC(=O)N(CC(=O)N(CCN)CC(=O)N(CC(=O)N(CC(=O)N(CCN)CC(=O)N(CC(=O)N(CC(=O)N(CCN)CC(=O)N(CC(=O)N(CC(N)=O)Cc1ccccc1)Cc1ccccc1)Cc1ccccc1)Cc1ccccc1)Cc1ccccc1)Cc1ccccc1)Cc1ccccc1)Cc1ccccc1 (H-[Gly(N-2-aminoethyl)][Nphe][Nphe][Gly(N-2-aminoethyl)][Nphe][Nphe][Gly(N-2-aminoethyl)][Nphe][Nphe][Gly(N-2-aminoethyl)][Nphe][Nphe]-NH2) | 21 µM | > 100 µM | >5 µM | > 5 µM
CCCN(CC(=O)N(CC(N)=O)[C@@H](C)c1ccccc1)C(=O)CN(CCCCN)C(=O)CN(C(=O)CN(CCC)C(=O)CN(CCCCN)C(=O)CN(C(=O)CN(CCC)C(=O)CNCCCCN)[C@@H](C)c1ccccc1)[C@@H](C)c1ccccc1 (H-[Nlys][NPrGly][Nspe][Nlys][NPrGly][Nspe][Nlys][NPrGly][Nspe]-NH2) | > 100 µM | > 100 µM | – | –
CCCN(CC(=O)N(CC(N)=O)[C@@H](C)c1ccccc1)C(=O)CN(CCCCN)C(=O)CN(C(=O)CN(CCC)C(=O)CN(CCCCN)C(=O)CN(C(=O)CN(CCC)C(=O)CN(CCCCN)C(=O)CN(C(=O)CN(CCC)C(=O)CNCCCCN)[C@@H](C)c1ccccc1)[C@@H](C)c1ccccc1)[C@@H](C)c1ccccc1 (H-[Nlys][NPrGly][Nspe][Nlys][NPrGly][Nspe][Nlys][NPrGly][Nspe][Nlys][NPrGly][Nspe]-NH2) | > 100 µM | > 100 µM | – | –
CC(C)CN(CC(=O)N(CC(N)=O)[C@@H](C)c1ccccc1)C(=O)CN(CCCCN)C(=O)CN(C(=O)CN(CC(C)C)C(=O)CNCCCCN)[C@@H](C)c1ccccc1 (H-[Nlys][Nleu][Nspe][Nlys][Nleu][Nspe]-NH2) | > 100 µM | > 100 µM | – | –
CC(C)CN(CC(=O)N(CC(N)=O)[C@@H](C)c1ccccc1)C(=O)CN(CCCCN)C(=O)CN(C(=O)CN(CC(C)C)C(=O)CN(CCCCN)C(=O)CN(C(=O)CN(CC(C)C)C(=O)CNCCCCN)[C@@H](C)c1ccccc1)[C@@H](C)c1ccccc1 (H-[Nlys][Nleu][Nspe][Nlys][Nleu][Nspe][Nlys][Nleu][Nspe]-NH2) | > 100 µM | > 100 µM | – | –
CC(C)CN(CC(=O)N(CC(N)=O)[C@@H](C)c1ccccc1)C(=O)CN(CCCCN)C(=O)CN(C(=O)CN(CC(C)C)C(=O)CN(CCCCN)C(=O)CN(C(=O)CN(CC(C)C)C(=O)CN(CCCCN)C(=O)CN(C(=O)CN(CC(C)C)C(=O)CNCCCCN)[C@@H](C)c1ccccc1)[C@@H](C)c1ccccc1)[C@@H](C)c1ccccc1 (H-[Nlys][Nleu][Nspe][Nlys][Nleu][Nspe][Nlys][Nleu][Nspe][Nlys][Nleu][Nspe]-NH2) | > 100 µM | > 100 µM | – | –
NCCCCNCC(=O)N(CC(=O)N(CC(=O)N(CCCCN)CC(=O)N(CC(=O)N(CC(N)=O)Cc1ccccc1)Cc1ccccc1)Cc1ccccc1)Cc1ccccc1 (H-[Nlys][Nphe][Nphe][Nlys][Nphe][Nphe]-NH2) | > 100 µM | > 100 µM | – | –
NCCCCNCC(=O)N(CC(=O)N(CC(=O)N(CCCCN)CC(=O)N(CC(=O)N(CC(=O)N(CCCCN)CC(=O)N(CC(=O)N(CC(=O)N(CCCCN)CC(=O)N(CC(=O)N(CC(N)=O)Cc1ccccc1)Cc1ccccc1)Cc1ccccc1)Cc1ccccc1)Cc1ccccc1)Cc1ccccc1)Cc1ccccc1)Cc1ccccc1 (H-[Nlys][Nphe][Nphe][Nlys][Nphe][Nphe][Nlys][Nphe][Nphe][Nlys][Nphe][Nphe]-NH2) | 15 µM | > 100 µM | – | –
C[C@@H](c1ccccc1)N(CC(N)=O)C(=O)CN(C(=O)CN(CCCCN)C(=O)CN(C(=O)CN(C(=O)CNCCCCN)[C@@H](C)c1ccccc1)[C@@H](C)c1ccccc1)[C@@H](C)c1ccccc1 (H-[Nlys][Nspe][Nspe][Nlys][Nspe][Nspe]-NH2) | > 100 µM | > 100 µM | – | –
C[C@@H](c1ccccc1)N(CC(N)=O)C(=O)CN(C(=O)CN(CCCCN)C(=O)CN(C(=O)CN(C(=O)CN(CCCCN)C(=O)CN(C(=O)CN(C(=O)CN(CCCCN)C(=O)CN(C(=O)CN(C(=O)CNCCCCN)[C@@H](C)c1ccccc1)[C@@H](C)c1ccccc1)[C@@H](C)c1ccccc1)[C@@H](C)c1ccccc1)[C@@H](C)c1ccccc1)[C@@H](C)c1ccccc1)[C@@H](C)c1ccccc1 (H-[Nlys][Nspe][Nspe][Nlys][Nspe][Nspe][Nlys][Nspe][Nspe][Nlys][Nspe][Nspe]-NH2) | 8 µM | > 100 µM | – | –
CC(c1ccccc1)N(CC(=O)N(CCCCN)CC(=O)N(CC(=O)N(CC(=O)N(CCCCN)CC(=O)N(CC(=O)N(CC(N)=O)[C@@H](C)c1ccccc1)Cc1ccc(F)cc1)C(C)c1ccccc1)Cc1ccc(F)cc1)C(=O)CN(Cc1ccc(F)cc1)C(=O)CNCCCCN (single isomer, unassigned) | 13 µM | > 100 µM | – | –
CC(C)CCN(CC(=O)N(CC(=O)N(CCCCN)CC(=O)N(CCC(C)C)CC(=O)N(CC(=O)N(CCCCN)CC(=O)N(CCC(C)C)CC(=O)N(CC(=O)N(CCCCN)CC(=O)N(CCC(C)C)CC(=O)N(CC(N)=O)[C@@H](C)c1ccccc1)C(C)c1ccccc1)C(C)c1ccccc1)C(C)c1ccccc1)C(=O)CNCCCCN (single isomer, unassigned) | 12 µM | > 100 µM | – | –
CC(c1ccccc1)N(CC(=O)N(CCCCN)CC(=O)N(CC(=O)N(CC(=O)N(CCCCN)CC(=O)N(CC(=O)N(CC(N)=O)[C@@H](C)c1ccccc1)[C@@H](C)c1ccccc1)Cc1ccc(F)cc1)Cc1ccc(F)cc1)C(=O)CN(C(=O)CN(CCCCN)C(=O)CN(Cc1ccc(F)cc1)C(=O)CN(Cc1ccc(F)cc1)C(=O)CNCCCCN)[C@@H](C)c1ccccc1 (single isomer, unassigned) | 6 µM | 21 µM | >5 µM | 5 µM
CC(C)CCN(CC(=O)N(CC(N)=O)C(C)c1ccccc1)C(=O)CN(CCCCN)C(=O)CN(C(=O)CN(CCC(C)C)C(=O)CN(CCCCN)C(=O)CN(C(=O)CN(CCC(C)C)C(=O)CNCCCCN)[C@@H](C)c1ccccc1)[C@@H](C)c1ccccc1 (single isomer, unassigned) | 52 µM | > 100 µM | – | –
CCCCCN(CC(=O)N(CC(=O)N(CC(=O)N(CCCCN)CC(=O)N(CC(=O)N(CC(N)=O)[C@@H](C)c1ccccc1)[C@@H](C)c1ccccc1)C(C)c1ccccc1)[C@@H](C)c1ccccc1)C(=O)CN(C(=O)CN(C(=O)CN(CCCCN)C(=O)CN(C(=O)CN(C(=O)CNCCCCN)[C@@H](C)c1ccccc1)C(C)c1ccccc1)[C@@H](C)c1ccccc1)C(C)c1ccccc1 (single isomer, unassigned) | 10 µM | 15 µM | – | –
CC(c1ccccc1)N(CC(=O)N(CCCCN)CC(=O)N(CC(=O)N(CC(=O)N(CCCCN)CC(=O)N(CC(=O)N(CC(=O)N(CCCCN)CC(=O)N(CC(=O)N(CC(N)=O)[C@@H](C)c1ccccc1)Cc1ccc(F)cc1)C(C)c1ccccc1)Cc1ccc(F)cc1)C(C)c1ccccc1)Cc1ccc(F)cc1)C(=O)CN(Cc1ccc(F)cc1)C(=O)CNCCCCN (single isomer, unassigned) | 8 µM | 27 µM | – | –
CCCCCNCC(=O)N(CC(=O)N(CC(=O)N(CCCCN)CC(=O)N(CC(=O)N(CC(=O)N(CCCCC)CC(=O)N(CC(=O)N(CC(=O)N(CCCCN)CC(=O)N(CC(=O)N(CC(N)=O)[C@@H](C)c1ccccc1)[C@@H](C)c1ccccc1)C(C)c1ccccc1)[C@@H](C)c1ccccc1)C(C)c1ccccc1)[C@@H](C)c1ccccc1)C(C)c1ccccc1)[C@@H](C)c1ccccc1 (single isomer, unassigned) | 10 µM | 17 µM | – | –
CC(c1ccccc1)N(CC(=O)N(CCN)CC(=O)N(CC(=O)N(CC(=O)N(CCN)CC(=O)N(CC(=O)N(CC(N)=O)[C@@H](C)c1ccccc1)[C@@H](C)c1ccccc1)C(C)c1ccccc1)[C@@H](C)c1ccccc1)C(=O)CN(C(=O)CNCCN)C(C)c1ccccc1 (single isomer, unassigned) | 10 µM | > 100 µM | – | –
CC(c1ccccc1)N(CC(=O)N(CCCCN)CC(=O)N(CC(=O)N(CC(=O)N(CCCCN)CC(=O)N(CC(=O)N(CC(N)=O)[C@@H](C)c1ccccc1)[C@@H](C)c1ccccc1)Cc1ccc(F)cc1)Cc1ccc(F)cc1)C(=O)CN(C(=O)CNCCCCN)[C@@H](C)c1ccccc1 (single isomer, unassigned) | 13 µM | > 100 µM | – | –
CCCCCNCC(=O)N(CC(=O)N(CC(=O)N(CCCCN)CC(=O)N(CC(=O)N(CC(=O)N(CCCCN)CC(=O)N(CC(=O)N(CC(=O)N(CCCCN)CC(=O)N(CC(=O)N(CC(N)=O)[C@@H](C)c1ccccc1)[C@@H](C)c1ccccc1)C(C)c1ccccc1)[C@@H](C)c1ccccc1)[C@@H](C)c1ccccc1)[C@@H](C)c1ccccc1)C(C)c1ccccc1)[C@@H](C)c1ccccc1 (single isomer, unassigned) | 8 µM | 21 µM | – | –
CCCCCNCC(=O)N(CC(=O)N(CC(=O)N(CCCCC)CC(=O)N(CC(=O)N(CC(=O)N(CCCCN)CC(=O)N(CC(=O)N(CC(=O)N(CCCCN)CC(=O)N(CC(=O)N(CC(N)=O)[C@@H](C)c1ccccc1)[C@@H](C)c1ccccc1)C(C)c1ccccc1)[C@@H](C)c1ccccc1)C(C)c1ccccc1)[C@@H](C)c1ccccc1)C(C)c1ccccc1)[C@@H](C)c1ccccc1 (single isomer, unassigned) | 11 µM | 16 µM | 1.6 µM | 1.7 µM
C[C@H](c1ccccc1)N(CC(N)=O)C(=O)CN(C(=O)CN(CCCCN)C(=O)CN(C(=O)CN(C(=O)CN(CCCCN)C(=O)CN(C(=O)CN(C(=O)CNCCCCN)[C@H](C)c1ccccc1)[C@@H](C)c1ccccc1)[C@H](C)c1ccccc1)[C@@H](C)c1ccccc1)[C@H](C)c1ccccc1 (stereo in doubt) | 15 µM | > 100 µM | – | –
C[C@H](c1ccccc1)N(CC(=O)N(CCN)CC(=O)N(CC(=O)N(CC(=O)N(CCN)CC(=O)N(CC(=O)N(CC(=O)N(CCN)CC(=O)N(CC(=O)N(CC(N)=O)[C@@H](C)c1ccccc1)[C@@H](C)c1ccccc1)[C@H](C)c1ccccc1)[C@@H](C)c1ccccc1)[C@H](C)c1ccccc1)[C@@H](C)c1ccccc1)C(=O)CN(C(=O)CNCCN)[C@H](C)c1ccccc1 (stereo in doubt) | 7 µM | 17 µM | >5 µM | 3 µM
